In one assay the test system is Kit. On the set-up: method as in PMID 16951187. Particulars: biochemical assays; read-out: IC50, inhibition of Kit activity; cited from earlier work.
The next assay concerns the target T1, Kit V560D/V654A mutant (Homo sapiens, UniProt P10721, V560D/V654A).
T1 construct: human wild-type KIT to yield full-length, mutant constructs; expressed in transfected cells; host or cells: AM-1/D CHO cells, stably transfected
The assay is described as follows: Cell-based Kit autophosphorylation assay, V560D/V654A mutant. Particulars: autophosphorylation IC50 […] nM versus […] nM. As to the method:
(§1) CHO cells stably transfected with wild-type or mutant isoforms of KIT were seeded in a 96-well tissue culture plate at a density of 2 × 10^4 cells per well. For stem cell factor (SCF) characterization experiments, cells were stimulated with serial dilutions of SCF for varying times. […] Cell lines transfected with activating KIT mutants were not stimulated with SCF in IC50 experiments. Cells were washed with phosphate-buffered saline and lysed in RIPA buffer (50 mM Tris, pH 7; 150 mM NaCl, 1% Igepal, 0.5% sodium deoxycholate, 0.1% SDS, 300 μM activated sodium vanadate, 1× protease inhibitor cocktail) for 30 minutes at 4°C with shaking. Cell lysates were added to a 96-well DELFIA microplate (PerkinElmer Inc.) coated with anti-Kit antibody (1 μg per well; AF332, R&D Systems, Inc.; Minneapolis, MN) and incubated for 2 hours. Lysates were then removed and the plate was washed 3 times with DELFIA wash buffer (PerkinElmer Inc.). […] The plate was then washed 3 times with DELFIA wash buffer before 0.01 μg of Eu-N1-labeled anti-mouse antibody (Cat. # AD0124, PerkinElmer Inc.) was added to each well. The plate was again incubated at room temperature for 1 hour and then washed 3 times with DELFIA wash buffer before the signal was detected by adding DELFIA enhancement buffer (PerkinElmer Inc.) to each well.

Assay [1] concerns Ba/F3 cells stably transfected with KIT AYins503-504. The assay is described as follows: cells. Particulars: Mus musculus, BaF3, 24 h, read-out: IC50 of Stably Transfected Ba/F3 Cell Survival. As to the method: (§2) The ability of Kit mutants to act as survival factors was assessed in Kit-dependent Ba/F3 cells. Ba/F3 cells stably transfected with various KIT mutants were seeded in a 96-well tissue culture plate at a density of 5 × 10^3 cells per well. […] Cell viability was assessed by measuring the level of adenosine triphosphate using ATPlite assays (PerkinElmer Life Sciences, Boston, MA). Reconstituted ATPLite 1-step solution was added to each well followed by incubation with shaking for 2 minutes. The plate was read on a Victor Model 1420 multilabel counter (PerkinElmer Inc.) under the luminescence setting.

Assay [2] deals with Ba/F3 cells stably transfected with KIT Y823D. Put plainly: cells. Particulars: Mus musculus, BaF3, 24 h, read-out: IC50 of Stably Transfected Ba/F3 Cell Survival. As to the method:
as §2

Assay [3] has as its system Ba/F3 cells stably transfected with KIT V560D/V654A. Put plainly: cells. Particulars: Mus musculus, BaF3, 24 h, read-out: IC50 of Stably Transfected Ba/F3 Cell Survival. On the procedure:
as §2

The test system of assay [4] is Ba/F3 cells stably transfected with KIT V560D/T670I. The assay is described as follows: cells. Particulars: Mus musculus, BaF3, 24 h, read-out: IC50 of Stably Transfected Ba/F3 Cell Survival. As to the method: as §2
The subject of assay [5] is Ba/F3 cells stably transfected with KIT Δ552-559. Put plainly: cells. Particulars: Mus musculus, BaF3, 24 h, read-out: IC50 of Stably Transfected Ba/F3 Cell Survival. On the procedure: as §2
Assay [6] deals with Ba/F3 cells stably transfected with KIT V560D. Put plainly: cells. Particulars: Mus musculus, BaF3, 24 h, read-out: IC50 of Stably Transfected Ba/F3 Cell Survival. On the procedure: as §2
For a further assay, the target named is T2, Kit D816V mutant (Homo sapiens, UniProt P10721, D816V).
T2 construct: human wild-type KIT to yield full-length, mutant constructs; expressed in transfected cells; host or cells: AM-1/D CHO cells, stably transfected
The assay is described as follows: Cell-based Kit autophosphorylation assay, D816V mutant. Particulars: stably transfected CHO cells, up to 3000 nM. As to the method:
as §1

Assay [7] relates to Kit activity (hair depigmentation). The assay is described as follows: In vivo hair depigmentation assay (surrogate marker of Kit activity). Particulars: female C57B6 mice. As to the method: Female C57B6 mice (6 to 8 weeks old; 20 to 30 g; Charles River Laboratories, Wilmington, MA) were anesthetized, and an area of skin 2 × 2 cm on the right flank was depilated. […] On day 21, photographs were taken for assessment of hair depigmentation. The same patch of skin was depilated again on day 28, and photographs for assessment of depigmentation were taken on day 35. All animal experimental procedures were conducted in accordance with the guidelines of the Amgen Animal Care and Use Committee and the Association for Assessment and Accreditation of Laboratory Animal Care standards.

The next assay relates to PDGFR. Further details: method as in PMID 16951187. Particulars: biochemical assays; read-out: IC50, inhibition of PDGFR activity; cited from earlier work.
Assay [8] deals with Kit (hair depigmentation). On the set-up: method as in PMID 12966161. Particulars: mice; cited from earlier work.

For the compound `CC1(C)CNc2cc(NC(=O)c3cccnc3NCc3ccncc3)ccc21` [Motesanib], the IC50 with Kit was […]; in [1], 11 nM; in assay [2], 62 nM; in assay [3] it was 91 nM; in assay [4], 180 nM; in [5], 0.4 nM. Besides, the IC50 is 3 nM in [6] and 84 nM with PDGFR. Further, at Kit V560D/V654A mutant, the “Loss of activity, V560D/V654A double mutant compared with V560D alone” value was “fifteen-fold loss”. Moreover, the “Inhibition of autophosphorylation of the D816V mutant” value at Kit D816V mutant is listed as “neither motesanib nor imatinib inhibited”. In addition, the “Hair depigmentation of regrown hair” value in assay [7] (75 mg/kg oral twice daily for 21 days after depilation, assessed day 21, vs vehicle) is reported as “markedly depigmented”. In addition, the “Hair depigmentation of regrown hair after cessation of treatment” value in assay [7] (treatment stopped day 21, depilated again day 28, assessed day 35) is listed as “no apparent depigmentation”.

With `CCN(CC)CCNC(=O)c1c(C)[nH]c(/C=C2\C(=O)Nc3ccc(F)cc32)c1C` [sunitinib], the Hair depigmentation entry in assay [8] is given as “Depigmentation has previously been observed”.

Source of the values: paper PMC2912835 (Journal of Experimental & Clinical Cancer Research : CR, 2010).
